From US7999000B2, “N-(2-amino-phenyl)-acrylamides” (Hoffmann-La Roche Inc., priority 2008, dated 2011)

What was measured:
[1] = tested on: histone deacetylase (HeLa nuclear extract); assay: HeLa extract HDAC fluorometric assay; type: biochemical; details: relative inhibitory potency compared with SNDX-275 at 30 micromolar
Procedure: HDAC Inhibition by Novel Compounds: HeLa Extract HDAC Fluorometric Assay
Novel compounds were tested for their ability to inhibit histone deacetylase using an in vitro deacetylation assay. The enzyme source for this assay was HeLa nuclear extract. The substrate consisted of a commercial product containing an acetylated lysine side chain (both HeLa extract and substrate are available commercially from BIOMOL Research Laboratories, Inc., Plymouth Meeting, Pa.). After deacetylation of the substrate by incubation with HeLa nuclear extract, subsequent exposure to a developing reagent produces a fluorophore that is directly proportional to the level of deacetylation. Using the substrate concentration at the Km for the HeLa nuclear extract, the deacetylation assay was performed in the presence of novel compounds at 30 micromolar and the percent enzyme inhibition relative to a known reference HDAC inhibitor (SNDX-275) was determined. […] Inhibitory activity for specific representative compounds can be found in Table 3.

[2] = tested on: p21 promoter-luciferase construct in HeLa cells; assay: p21 reporter gene induction; type: cell-based; details: relative induction potency compared with SNDX-275 at 3 micromolar
Procedure: p21 Reporter Gene Induction By Novel Compounds
The novel compounds of the present invention were tested for their ability to induce p21 gene expression using a reporter gene assay involving HeLa cells transfected with a p21 promoter-luciferase construct. The p21 promoter contained the Sp1/Sp3 binding site for HDAC but not the upstream p53 binding site. Briefly, the day before transfection, HeLa cells were seeded at 11,000 cells/well in a 96-well culture plate and incubated at 37 degrees Celsius in 5% CO2 overnight. For transfection, the medium was removed and replaced with 100 microliters/well transfection media previously prepared as follows: 5 microliters serum-free DMEM, 0.15 microliters Fugene 6 reagent, 40 ng p21-luc, 10 ng GFP were mixed gently and incubated at room temperature for 30 minutes; then 98 microliters DMEM (with 10% FBS, 1% penicillin and streptomycin) was added to the DNA:Fugene 6 reagent complex and mixed gently. After incubating the cells for 24 hours at 37 degrees Celsius in 5% CO2, fresh media and test compounds were added to the wells and the cells further incubated for 15 hours at 37 degrees Celsius in 5% CO2. Cells were lysed by adding 80 microliters/well of a cell culture lysis reagent (Promega). 50 microliters of each lysate was taken for GFP detection using an excitation wavelength of 486 nm and detection at 527 nm. 100 microliters Luciferase assay reagent (Promega) was then added to every 20 microliters cell lysate for luminometer detection. […] Induction activity for specific representative compounds can be found in Table 3.

[3] = tested on: klf2 promoter-luciferase construct in A204 cells; assay: klf2 reporter gene induction (p21 versus klf2 selectivity); type: cell-based; details: for p21/klf2 (RP3): relative selectivity at 3 micromolar compared with SNDX-275 (p21/klf2 ratio defined as 1.0); for p21/klf2 (RP10): relative selectivity at 10 micromolar compared with SNDX-275 (p21/klf2 ratio defined as 1.0)
Procedure: klf2 Reporter Gene Induction By Novel Compounds
The novel compounds of the present invention were tested for their ability to induce klf2 gene expression using a reporter gene assay involving A204 cells transfected with a klf2 promoter-luciferase construct. The klf2 promoter contained the MEF2 binding site for HDAC3/class IIa HDAC complex. Briefly, the day before transfection, A204 cells were seeded at 11,000 cells/well in a 96-well culture plate and incubated at 37 degrees Celsius in 5% CO2 overnight. For transfection, the medium was removed and replaced with 100 microliters/well transfection media previously prepared as follows: 5 microliters serum-free DMEM, 0.15 microliters Fugene 6 reagent, 40 ng klf2-luc, 10 ng GFP were mixed gently and incubated at room temperature for 30 minutes; then 98 microliters DMEM (with 10% FBS, 1% penicillin and streptomycin) was added to the DNA:Fugene 6 reagent complex and mixed gently. After incubating the cells for 24 hours at 37 degrees Celsius in 5% CO2, fresh media and test compounds were added to the wells and the cells further incubated for 15 hours at 37 degrees Celsius in 5% CO2. Finally, 10 ng/ml TNF-a was added and the cells further incubated for 4 hours. Cells were lysed by adding 80 microliters/well of a cell culture lysis reagent (Promega). 50 microliters of each lysate was taken for GFP detection using an excitation wavelength of 486 nm and detection at 527 nm. 100 microliters Luciferase assay reagent (Promega) was then added to every 20 microliters cell lysate for luminometer detection.

[4] = tested on: HT-29 colon cancer cells; assay: Antiproliferative activity, growth inhibition assay (MTS/WST); type: cell-based; details: Homo sapiens, 72 hour, read-out: GI50 (micromolar) HT-29
Procedure: Antiproliferative Activity Against Cancer Cell Lines By Novel Compounds
The novel compounds of the present invention were tested for their ability to inhibit growth of various cancer cell lines using in vitro growth inhibition assays described below.
Cells were seeded in 96-well culture plates (200 microliters/well at different seeding concentrations depending on cell type) and incubated overnight at 37 degrees Celsius in 5% CO2. After adding compound dilutions to the cells (DMSO concentration kept below 0.5%), the cells were incubated at 37 degrees Celsius in 5% CO2 for 72 hours. The effects on proliferation were determined by addition of MTS reagent (Promega) according to the manufacturer's instruction, followed by incubation for 2 hours at 37 degrees Celsius in 5% CO2, and finally recording the absorbance at 490 nm using an ELISA plate reader.
Similar to MTS assay except that the developer is the CCK-8 reagent (Dojindo) and the plate reader is set to 450 nm absorbance.
GI50 values against HT-29 colon cancer cells for specific representative compounds can be found in Table 3.

| Structure (SMILES) | HD (RP30) [1] [%] | p21 (RP3) [2] [%] | p21/klf2 (RP3) [3] | p21/klf2 (RP10) [3] | GI50 [4] [µM] |
| --- | --- | --- | --- | --- | --- |
| CCN(CC)C1CCN(C(C(=O)Nc2ccc(F)cc2)c2ccc(/C=C/C(=O)Nc3ccccc3N)cc2)C1 (stereo not shown) [Example 7-17, (E)-N-(2-Amino-phenyl)-3-{4-[(3-diethylamino-pyrrolidin-1-yl)-(4-fluoro-phenylcarbamoyl)-methyl]-phenyl}-acrylamide] | 164 | 163 | 0.7 | 1.0 | 0.7 |
| CCN(CC)C1CCN(C(C(=O)Nc2ccc(C(F)(F)F)cc2)c2ccc(/C=C/C(=O)Nc3ccccc3N)cc2)C1 (stereo not shown) [Example 7-7, (E)-N-(2-Amino-phenyl)-3-{4-[(3-diethylamino-pyrrolidin-1-yl)-(4-trifluoromethyl-phenylcarbamoyl)-methyl]-phenyl}-acrylamide] | 183 | 230 | 2.1 | 2.0 | 2.3 |
| Nc1ccccc1NC(=O)/C=C/c1ccc(C(C(=O)Nc2ccc(Br)cc2)N2CCC(N3CCCCC3)C2)cc1 (stereo not shown) [Example 7-30, (E)-N-(2-Amino-phenyl)-3-{4-[(4-bromo-phenylcarbamoyl)-(3-piperidin-1-yl-pyrrolidin-1-yl)-methyl]-phenyl}-acrylamide] | 111 | 338 | 1.2 | 0.1 | 0.7 |
| CN(C)[C@@H]1CCN(C(C(=O)Nc2ccc(C(F)(F)F)cc2)c2ccc(/C=C/C(=O)Nc3ccccc3N)cc2)C1 (stereo partly drawn) [Example 7-6, (E)-N-(2-Amino-phenyl)-3-{4-[((R)-3-dimethylamino-pyrrolidin-1-yl)-(4-trifluoromethyl-phenylcarbamoyl)-methyl]-phenyl}-acrylamide] | 175 | 216 | 2.3 | 2.9 | 3 |
| CCN(CC)C1CCN(C(C(=O)Nc2ccc(Cl)cc2)c2ccc(/C=C/C(=O)Nc3ccccc3N)cc2)C1 (stereo not shown) [Example 7] | 163 | 187 | 0.8 | 1.2 | 0.4 |
| CCN(CCO)C1CCN(C(C(=O)Nc2ccc(Br)cc2)c2ccc(/C=C/C(=O)Nc3ccccc3N)cc2)C1 (stereo not shown) [Example 7-29, (E)-N-(2-Amino-phenyl)-3-[4-((4-bromo-phenylcarbamoyl)-{3-[ethyl-(2-hydroxy-ethyl)-amino]-pyrrolidin-1-yl}-methyl)-phenyl]-acrylamide] | 144 | 293 | 1.2 | 1.4 | – |
| CCN(CC)C1CCN(C(C(=O)Nc2ccc(C#N)cc2)c2ccc(/C=C/C(=O)Nc3ccccc3N)cc2)C1 (stereo not shown) [Example 7-16, (E)-N-(2-Amino-phenyl)-3-{4-[(4-cyano-phenylcarbamoyl)-(3-diethylamino-pyrrolidin-1-yl)-methyl]-phenyl}-acrylamide] | 159 | 157 | 0.7 | 0.9 | 0.2 |
